The values below come from patent publication US8858985B2, “Films comprising a liquid-absorbant inner layer, an antimicrobial material and an impermeable outer layer” (E I du Pont de Nemours and Company, priority 2004, dated 2014).

Molecules are shown by their SMILES.

For one experiment, the system named is L. monocytogenes. Kind of experiment: film on lawn assay. Format: cell-based. Here is the method: Films of Example 1 and Example 2 at 150μ in thickness were cut into 15 mm by 15 mm samples placed onto aluminum foil, and exposed to UV light in a laminar flow hood for 4 to 7 minutes. The samples were then transferred from foil to various solutions as described in Table 6 to soak for 12 to 24 hours at room temperature.
(§1) For each antimicrobial solution concentration, a spot on lawn assay procedure was first conducted on agar plates to assess the efficacy of the solution to colony control. In this procedure, the TSA agar plates were inoculated with L. monocytogenes 15313 at a level of 10E+08 cfu/ml through an Autoplate 4000 model from Spiral Biotech. A volumetric pipette pump was then used to place three 10-μl spots of an antimicrobial solution onto appropriate regions of the test plate. Separately, another volumetric pipette pump was used to place 10 μl of a control solution (i.e., the solution in which the antimicrobial agent is dissolved). Three such agar plates were prepared for each concentration of antimicrobial solution. After spot placement, the plates were allowed to stand undisturbed for 10 to 30 minutes in a laminar flow hood before incubation at 37° C. for at least 24 hours. The resultant zones of inhibition were measured using a dial caliper (Brown and Sharpe, accuracy to 0.02 mm) with each zone measured twice on a 90° axis. Three such spots (for the antimicrobial treated solution) were so measured per plate, with three plates per condition to provide 18 such measurements. […] In the film on lawn procedure, 15 mm×15 mm films of example 1 and 2 were placed in freshly made up solutions for 12 to 24 hours at room temperature and then removed with a pair of flame-sterilized ocular forceps, allowed to drip dry, then placed for 60 seconds on a sterile Petri-dish before positioning on agar plates in a film on lawn assay procedure. The TSA agar plates had been prepared by inoculating with L. monocytogenes at a level of 10E+08 cfu/ml through an Autoplate 4000 model from Spiral Biotech. Two such films were so placed on the prepared TSA agar plates. A third 15 mm×15 mm film was soaked under the same conditions in a control solution (the solution without the antimicrobial agent) and placed in a third region of the plate. Three such plates were prepared in this manner for each concentration of antimicrobial agent. After film placement, the plates were allowed to stand undisturbed for 10 to 30 minutes in a laminar flow hood before incubation at 37° C. for at least 24 hours. The resultant zones of inhibition were measured using a dial caliper (Brown and Sharpe, accuracy to 0.02 mm) with each zone measured twice on a 90° axis. Two such films (for the antimicrobial treated film) were so measured per plate, with three plates per condition to provide 12 such measurements. No zones of inhibition were recorded for the control films.

A further experiment has as its system L. monocytogenes 15313. Description: spot on lawn assay. Type of experiment: cell-based. The conditions noted are these: 10-μl spots.
Text: as §1, with “Two such films were so placed on the prepared TSA agar plates. A third 15 mm×15 mm film was soaked under the same conditions in a control solution (the solution without the antimicrobial agent) and placed in a third region of the plate. Three such plates were prepared in this manner for each concentration of antimicrobial agent. After film placement, the plates were allowed to stand undisturbed for 10 to 30 minutes in a laminar flow hood before incubation at 37° C. for at least 24 hours.” left out

With `O=C(O)CC(O)(CC(=O)O)C(=O)O` [Citric acid], the entries for the “Group averages of Inhibition Zones (mm), Film on Lawn Assay Example 1” value in the experiment with L. monocytogenes (film of Example 1 soaked in 5 wt % in Water (95)), in the experiment with L. monocytogenes (film of Example 1 soaked in 7.5 wt % in Water (92.5)) and in the experiment with L. monocytogenes (film of Example 1 soaked in 10 wt % in Water (90)) were “Slight^3”, 19.21 ± 0.25 mm and 21.00 ± 0.63 mm, respectively. Further, the “Group averages of Inhibition Zones (mm), Film on Lawn Assay Example 2” value with L. monocytogenes (film of Example 2 soaked in 5 wt % in Water (95)), in the experiment on L. monocytogenes (film of Example 2 soaked in 7.5 wt % in Water (92.5)) and in the experiment on L. monocytogenes (film of Example 2 soaked in 10 wt % in Water (90)) was 0 mm in each case.
With `O=C(O)c1ccccc1` [Benzoic acid], the “Group averages of Inhibition Zones (mm), Spot on Lawn Assay” value was 7.31 ± 0.91 mm in the experiment with L. monocytogenes 15313 (0.75 wt % in Ethanol/Water (36/63.25)), 7.70 ± 0.61 mm in the experiment with L. monocytogenes 15313 (1.5 wt % in Ethanol/Water (36/62.5)) and 8.64 ± 0.76 mm in the experiment with L. monocytogenes 15313 (3.0 wt % in Ethanol/Water (36/61)). Further, the “Group averages of Inhibition Zones (mm), Film on Lawn Assay Example 1” value is 21.55 ± 0.77 mm in the experiment with L. monocytogenes (15 mm x 15 mm film of Example 1 soaked 12-24 h in 0.75 wt % in Ethanol/Water (36/63.25)), 25.92 ± 1.02 mm with L. monocytogenes (film of Example 1 soaked in 1.5 wt % in Ethanol/Water (36/62.5)) and 25.76 ± 0.41 mm with L. monocytogenes (film of Example 1 soaked in 3.0 wt % in Ethanol/Water (36/61)). For the same compound, the “Group averages of Inhibition Zones (mm), Film on Lawn Assay Example 2” value in the experiment on L. monocytogenes (15 mm x 15 mm film of Example 2 soaked 12-24 h in 0.75 wt % in Ethanol/Water (36/63.25)) was found to be 23.49 ± 1.47 mm; with L. monocytogenes (film of Example 2 soaked in 1.5 wt % in Ethanol/Water (36/62.5)), 27.85 ± 0.96 mm; in the experiment with L. monocytogenes (film of Example 2 soaked in 3.0 wt % in Ethanol/Water (36/61)), 27.6 ± 2.03 mm.
